Assay results published in patent US6541471B1, “Benzenesulphonamide compounds” (Les Laboratoires Servier, priority 2001, dated 2003).

Assays:
[1] = tested on: platelet aggregation induced by the TXA2 agonist U46619 in human platelet-rich plasma (PRP); assay: Platelet aggregation in man induced by the TXA2 agonist U46619; format: cell-based; conditions: U46619 1 μM, read-out: IC50, inhibition of platelet aggregation induced by the TXA2 agonist
Experimental: (§1) Venous blood is obtained from human volunteers who have not taken aspirin for at least 14 days prior to the experiment. The blood is removed over sodium citrate (0.109 M) (1 vol. of citrate over 9 vol. of blood). Platelet-rich plasma (PRP) is obtained by centrifugation (20° C.) at 200 g for 10 minutes. The number of platelets is on average 250000 PL/mm^3. The PRP is stored at room temperature until the test and is used within 2 hours of having been taken. The TXA2 agonist U46619 is used at a concentration of 1 μM and 5-hydroxytryptamine is used at a concentration of 10 μM, the latter in the presence of 0.3 μM adenosine diphosphate and 1 μM adrenalin.

[2] = tested on: platelet aggregation produced by 5-hydroxytryptamine in human platelet-rich plasma (PRP); assay: Platelet aggregation in man induced by 5-hydroxytryptamine; format: cell-based; conditions: 5-hydroxytryptamine 10 μM in the presence of 0.3 μM adenosine diphosphate and 1 μM adrenalin, read-out: IC50, inhibition of platelet aggregation produced by 5-hydroxytryptamine
Experimental: as §1

Work on `CN(C)CCCOc1ccccc1CCc1cc(CCNS(=O)(=O)c2ccc(Cl)cc2)cc(CCC(=O)O)c1` [Example 2, 3-[3-(2-{[(4-Chlorophenyl)sulphonyl]amino}ethyl)-5-(2-{2-[3-(dimethylamino)propoxy]phenyl}ethyl)phenyl]propanoic acid] yielded an IC50 [1] of 3.3 µM and an IC50 [2] of 0.96 µM.
